Data on one molecule can be found in ChEMBL document CHEMBL1150472, “Synthesis and immunoregulating activity of vitamin D analogues bearing pregnane side chains” (Bioorg Med Chem Lett, 1992).

For this assay, the system named is Rattus norvegicus. In words: Compound was tested in ratsdeficient in vitamin D at a dose of 125 ug/kg i.v.; NE denotes no effect was observed on bone calcium mobilization (BCM) and intestinal calcium absorption (ICA). It is filed as functional, organism-based.

Regarding `C=C1/C(=C\C=C2/CCC[C@@]3(C)C2CC[C@@H]3C(C)=O)CC(O)C[C@@H]1O` (stereo partly specified), the Activity result is “No effect”.
